Laboratory results: PMC3591093, “De novo modeling of the F420-reducing [NiFe]-hydrogenase from a methanogenic archaeon by cryo-electron microscopy” (eLife, 2013)

Experiments:
[1] = biological target: T1, Frh complex (FrhABG), F420-reducing [NiFe]-hydrogenase (Methanothermobacter marburgensis, UniProt D9PYF6); test: cryo-EM structure (map with versus without F420); format: binding; settings: 0.5, 1.0 or 10 mM F420, oxygen-free; site in FrhB next to FAD isoalloxazine; only the isoalloxazine-like ring modelled, weak density
T1 construct: gene frhB; FrhA C-terminus after His386 removed in maturation; FrhG most probably starts at Val39 of the 275-residue annotation; FrhA 45, FrhG 26, FrhB 31 kDa; with Coenzyme F420 hydrogenase subunit alpha; Coenzyme F420 hydrogenase subunit gamma
T1 sequence (D9PYF6 1-281): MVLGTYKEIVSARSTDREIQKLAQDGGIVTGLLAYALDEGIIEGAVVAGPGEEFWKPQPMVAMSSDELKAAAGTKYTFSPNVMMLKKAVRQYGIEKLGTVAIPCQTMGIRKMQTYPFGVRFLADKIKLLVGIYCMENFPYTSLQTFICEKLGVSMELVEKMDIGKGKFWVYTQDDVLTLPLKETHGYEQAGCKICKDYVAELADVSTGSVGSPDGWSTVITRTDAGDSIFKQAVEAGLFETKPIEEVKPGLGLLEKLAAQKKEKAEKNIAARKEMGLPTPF
T1 sequence (D9PYF9 1-386 partner): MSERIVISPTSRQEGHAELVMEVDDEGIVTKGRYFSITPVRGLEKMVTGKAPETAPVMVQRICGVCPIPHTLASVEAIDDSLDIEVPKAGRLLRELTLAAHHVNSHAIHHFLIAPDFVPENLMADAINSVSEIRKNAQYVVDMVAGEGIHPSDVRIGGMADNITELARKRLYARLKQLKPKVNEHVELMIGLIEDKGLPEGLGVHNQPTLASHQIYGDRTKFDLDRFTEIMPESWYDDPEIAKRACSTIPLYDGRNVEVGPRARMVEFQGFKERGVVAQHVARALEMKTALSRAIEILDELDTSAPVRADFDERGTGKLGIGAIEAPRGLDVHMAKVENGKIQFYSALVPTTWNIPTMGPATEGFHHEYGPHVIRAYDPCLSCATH
T1 sequence (D9PYF7 40-275 partner): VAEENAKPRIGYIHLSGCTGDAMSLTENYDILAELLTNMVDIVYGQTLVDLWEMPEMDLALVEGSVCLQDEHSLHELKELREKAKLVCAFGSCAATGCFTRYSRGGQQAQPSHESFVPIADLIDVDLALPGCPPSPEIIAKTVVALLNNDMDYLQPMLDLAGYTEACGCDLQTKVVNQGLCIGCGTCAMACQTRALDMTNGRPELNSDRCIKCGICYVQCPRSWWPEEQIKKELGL

[2] = biological target: T1, Frh complex (FrhABG), F420-reducing [NiFe]-hydrogenase; test: cryo-EM structure; format: binding; settings: 25 uM FAD in purification buffers; site in FrhB near the [4Fe-4S] cluster; ribose and ribitol density missing

C[C@H](OP(=O)(O)OC[C@@H](O)[C@@H](O)[C@@H](O)Cn1c2nc(=O)[nH]c(=O)c-2cc2ccc(O)cc21)C(=O)N[C@@H](CCC(=O)N[C@@H](CCC(=O)O)C(=O)O)C(=O)O [F420]
cryo-EM structure (map with versus without F420) [1]: We conclude that it represents the isoalloxazine ring of the F420 substrate.

Cc1cc2nc3c(=O)[nH]c(=O)nc-3n(C[C@H](O)[C@H](O)[C@H](O)COP(=O)(O)OP(=O)(O)OC[C@H]3O[C@@H](n4cnc5c(N)ncnc54)[C@H](O)[C@@H]3O)c2cc1C [FAD]
cryo-EM structure [2]: could be interpreted as the isoalloxazine ring of the FAD cofactor
